In the supplement of paper PMC10307832:

What was measured:
Experiment in all cases: relative viability (nuclei count vs DMSO), 5 days (fraction); higher = more cells survive
[1] = compound: C1CC1C(=O)NC2=NNC3=C2C=CC(=C3)C4=CC(=CC=C4)C(=O)NC5CC5 [XMD13-2] + CC(C)C[C@H](NC(=O)[C@H](Cc1ccccc1)NC(=O)c1cnccn1)B(O)O [Bortezomib] (partner 0.002 µM)
How it was run: (§1)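 Relative viability equals treated-well nuclei counts divided by vehicle-well nuclei counts. Counts came from 4× images of lung cancer cell lines grown in 1536-well plates for 5 days after pin-tool dosing on the day after seeding. Dosing used one drug alone or a fixed anchor-drug dose plus five library-drug doses (not always all listed) in √10 steps, and values are medians of duplicate plates.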

[2] = compound: C1CC1C(=O)NC2=NNC3=C2C=CC(=C3)C4=CC(=CC=C4)C(=O)NC5CC5 [XMD13-2] + CS(=O)(=O)N1CCN(Cc2cc3nc(-c4cccc5[nH]ncc45)nc(N4CCOCC4)c3s2)CC1 [Pictilisib] (partner 1 µM)
How it was run: as §1

[3] = compound: C1CC1C(=O)NC2=NNC3=C2C=CC(=C3)C4=CC(=CC=C4)C(=O)NC5CC5 [XMD13-2] + Nc1nc2[nH]cc(CCc3ccc(C(=O)N[C@@H](CCC(=O)O)C(=O)O)cc3)c2c(=O)[nH]1 [Pemetrexed] (partner 0.2 µM)
How it was run: as §1

[4] = compound: Cc1nc(Nc2ncc(C(=O)Nc3c(C)cccc3Cl)s2)cc(N2CCN(CCO)CC2)n1 [Dasatinib] + CC(=O)c1c(C)c2cnc(Nc3ccc(N4CCNCC4)cn3)nc2n(C2CCCC2)c1=O [Palbociclib] (partner 0.5 µM)
How it was run: as §1

Cell Line	relative viability ([1]; first compound 0.05 µM)	relative viability ([1]; first compound 0.1581 µM)	relative viability ([1]; first compound 0.5 µM)	relative viability ([1]; first compound 1.581 µM)	relative viability ([1]; first compound 5 µM)	relative viability ([2]; first compound 0.05 µM)	relative viability ([2]; first compound 0.1581 µM)	relative viability ([2]; first compound 0.5 µM)	relative viability ([2]; first compound 1.581 µM)	relative viability ([2]; first compound 5 µM)	relative viability ([3]; first compound 0.05 µM)	relative viability ([3]; first compound 0.1581 µM)	relative viability ([3]; first compound 0.5 µM)	relative viability ([3]; first compound 1.581 µM)	relative viability ([3]; first compound 5 µM)	relative viability ([4]; first compound 0.005 µM)	relative viability ([4]; first compound 0.01581 µM)	relative viability ([4]; first compound 0.05 µM)	relative viability ([4]; first compound 0.1581 µM)	relative viability ([4]; first compound 0.5 µM)
LCLC-97TM1	1.02	0.686	0.881	0.236	0.469	0.297	0.187	0.13	0.148	0.123	0.178	0.155	0.166	0.185	0.159	0.203	0.227	0.246	0.2	0.13
LCLC-103H	1.03	1.1	1.08	1.02	1.21	0.684	0.714	0.585	0.657	0.622	0.421	0.473	0.471	0.483	0.461	0.506	0.47	0.452	0.453	0.404
LOU-NH91	0.501	0.451	0.538	0.444	0.556	0.565	0.506	0.524	0.494	0.511	0.319	0.409	0.392	0.435	0.371	0.569	0.51	0.553	0.498	0.369
LU99A	1.2	1.06	1.12	0.992	0.718	0.298	0.334	0.32	0.284	0.254	0.208	0.203	0.189	0.213	0.187	0.354	0.379	0.379	0.308	0.2
LXF-289	1.06	1.04	1.07	0.976	1	0.941	0.728	0.806	0.714	0.642	0.92	0.952	0.892	0.964	0.952	0.603	0.676	0.672	0.384	0.118
NCI-H23	1.36	0.988	1.04	0.987	1.22	0.579	0.438	0.503	0.446	0.457	0.829	0.569	0.747	0.656	0.799	0.536	0.476	0.38	0.34	0.271
NCI-H322M	1.34	1.29	1.3	1.28	1.54	0.593	0.495	0.451	0.501	0.578	0.659	0.614	0.579	–	0.608	0.435	0.382	0.365	0.326	0.228
NCI-H441	0.652	0.49	0.524	0.464	0.594	0.445	0.505	0.539	0.37	0.411	0.298	0.24	0.233	0.234	0.263	0.265	0.191	0.2	0.14	0.115
NCI-H460	1.38	1.09	1.15	1.18	1.34	0.532	0.324	0.363	0.4	0.36	0.0636	0.0622	0.0651	0.0612	0.0633	0.14	0.112	0.0827	0.06	0.0635
NCI-H520	0.978	0.802	0.66	0.329	0.365	0.318	0.299	0.313	0.275	0.251	0.704	0.636	0.665	0.573	0.442	0.172	0.156	0.131	0.1	0.119
NCI-H647	1.59	1.16	1.29	1.11	0.549	0.534	0.491	0.393	0.296	0.277	0.173	0.168	0.179	0.164	0.134	0.314	0.22	0.162	0.0968	0.0812
NCI-H650	0.932	0.757	0.983	0.683	0.993	0.921	0.827	0.924	0.859	0.801	0.938	0.995	1.04	0.772	0.958	0.307	0.326	0.343	0.323	0.261
NCI-H661	0.86	0.805	0.846	0.626	0.587	0.469	0.529	0.421	0.344	0.383	0.936	0.927	0.873	0.916	0.838	0.429	0.412	0.386	0.345	0.282
NCI-H838	1.15	0.886	1.03	0.81	0.986	0.423	0.512	0.497	0.447	0.466	0.249	0.226	0.263	0.251	0.254	0.193	0.156	0.182	0.148	0.141
NCI-H1355	1.3	1.32	1.18	1.19	1.28	0.45	0.406	0.415	0.496	0.366	1.04	1.05	1.06	1.06	1.1	0.36	0.282	0.299	0.244	0.224
NCI-H1437	0.667	0.551	0.658	0.527	0.597	0.522	0.454	0.601	0.509	0.382	0.336	0.326	0.343	0.323	0.329	0.353	0.331	0.335	0.302	0.277

Cell Line	relative viability ([1]; first compound 0.05 µM)	relative viability ([1]; first compound 0.1581 µM)	relative viability ([1]; first compound 0.5 µM)	relative viability ([1]; first compound 1.581 µM)	relative viability ([1]; first compound 5 µM)	relative viability ([2]; first compound 0.05 µM)	relative viability ([2]; first compound 0.1581 µM)	relative viability ([2]; first compound 0.5 µM)	relative viability ([2]; first compound 1.581 µM)	relative viability ([2]; first compound 5 µM)	relative viability ([3]; first compound 0.05 µM)	relative viability ([3]; first compound 0.1581 µM)	relative viability ([3]; first compound 0.5 µM)	relative viability ([3]; first compound 1.581 µM)	relative viability ([3]; first compound 5 µM)	relative viability ([4]; first compound 0.005 µM)	relative viability ([4]; first compound 0.01581 µM)	relative viability ([4]; first compound 0.05 µM)	relative viability ([4]; first compound 0.1581 µM)	relative viability ([4]; first compound 0.5 µM)
NCI-H1650	0.22	0.201	0.198	0.195	0.191	0.687	0.452	0.644	0.542	0.541	0.351	0.388	0.348	0.418	0.395	0.282	0.12	0.184	0.138	0.177
NCI-H1651	1.02	0.914	0.946	0.92	0.965	0.819	0.477	0.661	0.64	0.548	0.607	0.56	0.577	0.647	0.775	0.523	0.494	0.514	0.4	0.36
NCI-H1666	0.893	0.838	1.02	0.763	0.468	0.566	0.479	0.59	0.349	0.492	0.863	0.919	0.875	0.884	0.946	0.661	0.594	0.637	0.656	0.632
NCI-H1734	1.35	0.954	0.887	0.729	0.768	0.558	0.45	0.444	0.423	0.389	0.41	0.422	0.398	0.412	0.386	0.328	0.285	0.295	0.208	0.2
NCI-H1755	0.992	1.02	0.984	0.934	1.03	0.548	0.411	0.48	0.315	0.496	0.418	0.455	0.473	0.456	0.396	0.438	0.435	0.401	0.322	0.235
NCI-H1792	1.16	0.996	1	0.927	1.15	0.29	0.249	0.266	0.284	0.265	1.16	0.694	0.922	0.75	1.14	0.685	0.639	0.566	0.429	0.271
NCI-H1915	1.06	1.01	1.01	0.979	1.01	0.981	0.884	1.07	0.9	0.919	0.504	0.509	0.544	0.504	0.513	0.482	0.438	0.403	0.195	0.163
NCI-H1975	0.45	0.384	0.345	0.392	0.445	0.319	0.3	0.333	0.322	0.325	0.295	0.286	0.295	0.316	0.305	0.519	0.527	0.482	0.341	0.134
NCI-H1993	1.42	1.08	1.02	0.972	1.04	0.846	0.783	0.781	0.937	0.845	0.62	0.619	0.613	0.643	0.555	0.65	0.623	0.622	0.662	0.373
NCI-H2009	1.05	1.12	1.4	1.02	1.01	0.838	0.945	0.904	0.822	0.566	1.01	1.1	1.01	1.01	1.07	0.186	0.137	0.138	0.103	0.101
NCI-H2023	1.16	0.928	1.06	0.986	0.983	0.318	0.244	0.219	0.24	0.225	0.261	0.206	0.195	0.242	0.246	0.319	0.304	0.303	0.326	0.204
NCI-H2085	1.09	1.07	1.15	0.93	1.1	0.828	0.445	0.444	0.444	0.481	0.959	0.838	0.977	0.789	1.03	0.495	0.485	0.395	0.191	0.206
NCI-H2087	0.917	1.25	1.08	0.782	0.856	0.95	0.846	1.05	0.888	0.772	0.635	0.661	0.624	0.67	0.583	0.223	0.206	0.238	0.184	0.142
NCI-H2126	1.16	1.09	1.18	1.05	1.13	0.508	0.448	0.503	0.518	0.502	0.748	0.656	0.634	0.704	0.647	0.362	0.347	0.309	0.298	0.285
NCI-H2228	1.48	1.16	1	1	0.872	0.44	0.452	0.566	0.351	0.402	0.354	0.315	0.339	0.31	0.27	0.73	0.611	0.652	0.364	0.367
NCI-H2347	1.02	0.977	1.09	0.952	1.09	0.743	0.655	0.826	0.827	0.387	0.458	0.443	0.446	0.453	0.45	0.393	0.438	0.415	0.329	0.224
